Values of other authors, collected in patent US10925864B2, “Stable liquid injectable solution of midazolam and pentazocine” (NEON LABORATORIES LIMITED, priority 2015, dated 2021).
Where a name gives a salt, the structure may show the parent alone. Read-outs that look alike come from different tables or passages of the source.

Experiments:
[1] = water / aqueous solutions
[2] = after IM administration in adults

| SMILES | solubility [1] | Onset time of sedative effects [2] [min] | solubility ([1]; hydrochloride) |
| --- | --- | --- | --- |
| Cc1ncc2n1-c1ccc(Cl)cc1C(c1ccccc1F)=NC2 [Midazolam] | insoluble in water | 15 | – |
| Cc1ncc2n1-c1ccc(Cl)cc1C(c1ccccc1F)=NC2 [hydrochloride salt of midazolam, Midazolam hydrochloride] | – | – | soluble in aqueous solutions |
